One block for each molecule: values may come before it.
What was measured:
O-form XOR = target: T1, O-form XOR (Rattus norvegicus, UniProt P22985); assay: DTT reduction of O-form XOR in soluble lung protein extracts; type: biochemical; settings: 5 nM DTT at 37° C. for one hour, re-chromatographed on sephadex G25 (FIG. 1e)
T1 construct: Total XOR activity in lung and liver tissue was determined using whole tissue protein extracts; from tissue; host or cells: lung (and liver) of Sprague-Dawley rats
Method: FIGS. 1A-E. Lung XOR induction following cytokine insufflation. Total lung and liver XOR activity was quantitated in the presence of NAD^+ in soluble desalted protein extracts from rats that were insufflated 24h before with saline, IL-1, IFN-γ or IL-1 and IFN-γ. […] IL-1 and IFN-γ insufflated rats had increased (**, p<0.02) lung (A), but not (p>0.05) liver (B), XOR activity compared to rats insufflated with saline, IL-1 (*, p<0.05), or IFN-γp>0.05). (C) Western immunoblot analysis of lung XOR from cytokine insufflated rats. Antibody to rat β-actin was used to control for gel loading. Gels were scanned with a Perkin-Elmer phosphoimager for semi-quantitation. Data are shown for two rats in each group. […] (D) The percentage of O-form XOR was quantitated in soluble protein extracts of cytokine insufflated rat lungs. […] Rats insufflated with IL-1 and IFN-γ had increased (*, p<0.05) lung O-form XOR activity compared to rats insufflated with saline, IL-1 or IFN-γ. […]
We quantitated the levels of O-form XOR in untreated or cytokine insufflated rat lungs. […] Soluble lung protein extracts from insufflated rats were exposed to 5 nM DTT at 37° C. for one hour and were re-chromatographed on sephadex G25 after which D-form and O-form content was re-measured. […]

XOR [1] = target: T2, XOR (Rattus norvegicus, UniProt P22985); assay: Xanthine oxidoreductase assay, lung tissue extracts of cytokine insufflated rats; type: in vivo; settings: for induction of total lung XOR activity: 24 hours following intratracheal cytokine insufflation (50 ng per rat) compared to saline alone (FIG. 1a); for lung O-form XOR content: lungs 24 h after insufflation, untreated 23%, saline 42% (FIG. 1d)
T2 construct: Total XOR activity in lung and liver tissue was determined using whole tissue protein extracts; from tissue; host or cells: lung (and liver) of Sprague-Dawley rats
Method: (§1) Intratracheal cytokine insufflation.
(§2) Xanthine oxidoreductase assay. Total XOR activity in lung and liver tissue was determined using whole tissue protein extracts. Briefly, tissues that had been perfused blood free were placed into liquid N2 and stored at −80° C. prior to generating enzyme extracts. Enzyme extracts were prepared by placing frozen specimens in extract buffer (100 mM K-Phosphate, pH 7.8, 1 mM EDTA, 1 mM PMSF). Tissues were thawed in extract buffer on ice and minced. Minced tissues were broken in a rotating dounce using exactly three strokes of the pestle. Tissue homogenates were then centrifuged at 15,000×g at 4° C. for 30 min. Clarified extracts were desalted on 2 cm×20 cm Sephadex G25 columns to remove low molecular weight substances that potentially interfere with enzyme activity (48), and 3 ml of the flow through front were collected. Allopurinol inhibitable XOR activity was determined spectroscopically by measuring uric acid formation from xanthine at 290 nm. The stability of uric acid added to the flow through fraction was determined in the presence and absence of the uricase inhibitor, oxonic acid (OA). […] Evaluation of D-form XOR and O-form XOR was determined by measuring enzymatic activity in the presence and absence of NAD+(49).

XOR [2] = target: T2, XOR; assay: XOR activity in BALF cells / adherent MNP of cytokine insufflated rats; settings: in vivo
Method: as §1
as §2, with “Clarified extracts were desalted on 2 cm×20 cm Sephadex G25 columns to remove low molecular weight substances that potentially interfere with enzyme activity (48), and 3 ml of the flow through front were collected.” left out
Neutrophils and MNP were recovered from the BALF 24 hours following IL-1 and IFN-γ insufflation and purified on Percoll gradients. […] Although XOR was induced over a 24 hour period in the infiltrating MNP recovered from the lungs of IL-1 and IFN-γ insufflated rats, neither XOR activity or antigen was detected in circulating rat monocytes (not shown). […]

[3] = tested on: IL-1 and IFN-γ insufflated rats; assay: Differential and total inflammatory cell counts in BALF after cytokine insufflation; type: in vivo, rat; settings: for macrophages in BALF (differential analysis) / neutrophils in BALF (differential analysis): 24 hours following insufflation
Excerpt: as §1

alveolar cells = assay: TUNEL staining and morphometric analysis; type: in vivo, rat; settings: prior feeding with diet, IL-1 and IFN-γ insufflation 24 h before (FIG. 4f,g)
Method: TUNEL staining and morphometric analysis. The TUNEL assay was used to detect apoptotic cells in fixed lung sections. After fixation with 4% buffered formalin, lung tissue sections were embedded in paraffin, sectioned at […], and mounted on glass slides. Slides were de-paraffinized, rehydrated for 10 min in PBS, and treated with 0.002% proteinase K (Sigma) in distilled water for 5 to 15 min at room temperature. Terminal deoxynucleotidyl transferase (TdT) was used for labeling of DNA nicks using the TACS kit (Trevigen, Inc., Gaithersburg, Md.). Counterstaining with DAPI was done to stain nuclear DNA and with Rhodamine coupled wheat germ agglutinin (WGA, Molecular Probes, Eugene, Oreg.) to stain the structural architecture. TUNEL positive cell staining appeared as green fluorescence in the nuclei of clearly defined alveolar cells. Background nuclear staining appeared as blue while the tissue architecture was red.

caspase-3 = assay: Activated caspase-3 detection in lung sections; type: in vivo, rat; settings: prior feeding with diet, IL-1 and IFN-γ insufflation 24 hours before (FIG. 4h)
Method: Activated caspase-3 detection. Detection of the cleaved, mature, activated caspase-3 was performed on paraffin-embedded sections using the Cell Signaling Technology, Inc (Beverly, Mass.) protocol. First, paraffin-embedded slides were deparaffinized and rehydrated. Incubation with 1% H2O2 for 10 min blocked endogenous peroxidase activity. For antigen unmasking, the tissue sections were microwaved in 10 mM sodium citrate buffer (pH 6.0) for 10 min. Next, the sections were blocked in 5% goat serum for 1 hr at room temperature. Slides were then incubated at 4° C. overnight with caspase-3 antibody specific for the cleaved, mature, form of caspase-3 diluted 1:200 in phosphate buffered saline (Asp-175; Cell Signaling Technology, Inc). This was followed by a 30 min incubation with a 1:200 dilution of goat anti-rabbit antibody (PK-6101; Vector Laboratories, Burlingame, Calif.). A subsequent 30 min incubation with VectaStain Elite ABC reagent (PK-6101; Vector Laboratories) ensued. This reaction was followed by the addition of the DAB substrate kit for peroxidase (SK-4100; Vector Labs). The slides were finally counterstained with hematoxylin (H-3401; Vector Labs), dehydrated and mounted. Caspase-3 positive cells were quantitated by counting the percent positive alveolar cells per field under 100× magnification.

XOR [4] = settings: cited from earlier work
[5] = tested on: IL-1 and IFN-γ insufflated rats; assay: Lung histology (H&E) after cytokine insufflation; settings: diet before IL-1 and IFN-γ insufflation, 24 hours later (FIG. 4d)

T2 sequence (P22985 whole entry): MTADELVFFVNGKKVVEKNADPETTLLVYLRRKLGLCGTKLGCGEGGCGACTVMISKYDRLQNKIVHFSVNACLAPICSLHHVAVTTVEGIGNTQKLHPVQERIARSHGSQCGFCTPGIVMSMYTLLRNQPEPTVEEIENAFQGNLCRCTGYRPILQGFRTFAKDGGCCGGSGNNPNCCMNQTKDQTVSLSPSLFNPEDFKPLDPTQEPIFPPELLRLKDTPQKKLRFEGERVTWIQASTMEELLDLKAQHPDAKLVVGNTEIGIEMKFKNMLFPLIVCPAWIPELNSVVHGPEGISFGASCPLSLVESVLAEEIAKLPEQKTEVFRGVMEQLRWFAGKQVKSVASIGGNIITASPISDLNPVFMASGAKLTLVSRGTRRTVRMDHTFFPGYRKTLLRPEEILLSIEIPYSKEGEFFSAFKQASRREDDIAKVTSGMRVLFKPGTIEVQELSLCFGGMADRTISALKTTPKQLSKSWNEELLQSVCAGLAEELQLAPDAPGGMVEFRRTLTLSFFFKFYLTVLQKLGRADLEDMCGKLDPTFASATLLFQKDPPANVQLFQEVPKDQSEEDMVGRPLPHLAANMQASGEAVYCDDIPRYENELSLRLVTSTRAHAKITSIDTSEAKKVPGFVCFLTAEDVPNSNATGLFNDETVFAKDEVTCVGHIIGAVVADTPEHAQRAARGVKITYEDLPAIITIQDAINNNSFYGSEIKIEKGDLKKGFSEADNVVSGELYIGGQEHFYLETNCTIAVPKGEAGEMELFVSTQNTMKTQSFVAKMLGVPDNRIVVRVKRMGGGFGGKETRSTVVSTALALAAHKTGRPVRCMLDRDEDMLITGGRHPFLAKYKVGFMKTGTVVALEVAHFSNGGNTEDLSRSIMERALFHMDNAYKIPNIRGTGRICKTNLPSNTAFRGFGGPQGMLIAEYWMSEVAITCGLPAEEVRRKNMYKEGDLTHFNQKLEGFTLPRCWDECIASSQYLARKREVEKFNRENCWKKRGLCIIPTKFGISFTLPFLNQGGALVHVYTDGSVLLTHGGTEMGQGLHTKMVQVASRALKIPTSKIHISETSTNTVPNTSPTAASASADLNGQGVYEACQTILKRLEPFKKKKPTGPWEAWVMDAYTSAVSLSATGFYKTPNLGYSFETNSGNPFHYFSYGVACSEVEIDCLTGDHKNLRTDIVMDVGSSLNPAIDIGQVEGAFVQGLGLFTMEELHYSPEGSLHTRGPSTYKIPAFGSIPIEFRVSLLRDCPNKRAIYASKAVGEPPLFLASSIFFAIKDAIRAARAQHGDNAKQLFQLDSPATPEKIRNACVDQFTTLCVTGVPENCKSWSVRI
T1 sequence (P22985 whole entry): as above

Molecule: [W] [tungsten]
XOR activity in the lungs (XOR [1]; tungsten diet before IL-1 and IFN-γ insufflation, 24 hours later, vs control diet (FIG. 4a)): decreased
XOR activity in the BALF cells (MNP XOR activity) (XOR [2]): decreased
accumulation of inflammatory cells (BALF cell numbers) ([3]; diet before IL-1 and IFN-γ insufflation, 24 hours later, allopurinol 50 mg/Kg for seven days (FIG. 4c)): reduced
development of alveolar apoptosis (TUNEL positive alveolar nuclei) (alveolar cells): attenuated
activation of caspase-3 in cytokine insufflated rat lungs (caspase-3): blocked
mononuclear cell infiltration and rejection signs (XOR [4]; day 9 post-transplantation): significantly ameliorated
NADPH-oxidase activity (XOR [4]; renal allografts): without any effect
XOR activity and ROS production (XOR [4]; renal allografts): pronounced reduction
histologic evidence of airway and perivascular inflammation [5]: attenuated

B1: interferon-y (protein, UniProt P01581 23-156, looked up)
Interferon gamma: QGTLIESLESLKNYFNSSSMDAMEGKSLLLDIWRNWQKDGNTKILESQIISFYLRLFEVLKDNQAISNNISVIESHLITNFFSNSKAKKDAFMSIAKFEVNNPQIQHKAVNELIRVIHQLSPESSLRKRKRSRC
notes: recombinant rat cytokine insufflated intratracheally to induce lung inflammation
induction of total lung XOR activity (XOR [1]): negligible response
lung O-form XOR content (XOR [1]): 52 % of the total XOR activity
macrophages in BALF (differential analysis) [3]: ~20%
neutrophils in BALF (differential analysis) [3]: approximately 80%

Further lines, with some results ahead:

O-form XOR after DTT reduction (O-form XOR): approximately 23 % of the total XOR
Molecule: O[C@H](CS)[C@H](O)CS (racemic) [DTT, dithiothreitol]

induction of total lung XOR activity (XOR [1]): approximate doubling
lung O-form XOR content (XOR [1]): 57 % of the total XOR activity
B2: Recombinant rat interleukin-1-α (protein, UniProt P16598 115-270, looked up)
Interleukin-1 alpha: SAPHSFQNNLRYKLIRIVKQEFIMNDSLNQNIYVDMDRIHLKAASLNDLQLEVKFDMYAYSSGGDDSKYPVTLKVSNTQLFVSAQGEDKPVLLKEIPETPKLITGSETDLIFFWEKINSKNYFTSAAFPELLIATKEQSQVHLARGLPSMIDFQIS
notes: as for B1
macrophages in BALF (differential analysis) [3]: ~20%
neutrophils in BALF (differential analysis) [3]: approximately 80%
